As usually defined, the melting point is the temperature, or range, at which the solid turns liquid.

In series [1] the target is T1, human adenosine A2A receptor (Homo sapiens, UniProt P29274).
T1 construct: expressed in transfected cells; host or cells: CHO cells, Semliki Forest virus expression system; membrane preparation
In words: [3H]-SCH-58261 binding assay, human adenosine A2A receptor. The conditions noted are these: [3H]-SCH-58261 1 nM; membranes of CHO cells expressing the recombinant receptor; Ki by Cheng-Prussoff; read-out: hA2 (pKi) (converted). The procedure:
Human Adenosine A2A Receptor
The human adenosine A2A receptor was recombinantly expressed in Chinese hamster ovary (CHO) cells using the semliki forest virus expression system. Cells were harvested, washed twice by centrifugation, homogenized and again washed by centrifugation. The final washed membrane pellet was suspended in a Tris (50 mM) buffer containing 120 mM NaCl, 5 mM KCl, 2 mM CaCl2 and 10 mM MgCl2 (pH 7.4) (buffer A). The [^3H]-SCH-58261 (Dionisotti et al., 1997, Br J Pharmacol 121, 353; 1 nM) binding assay was carried out in 96-well plates in the presence of 2.5 μg of membrane protein, 0.5 mg of Ysi-poly-1-lysine SPA beads and 0.1 U adenosine deaminase in a final volume of 200 μl of buffer A. Non-specific binding was defined using xanthine amine congener (XAC; 2 μM). Compounds were tested at 10 concentrations from 10 μM-0.3 nM. All assays were conducted in duplicate and repeated at least two times. Assay plates were incubated for 1 hour at room temperature before centrifugation and then bound ligand determined using a Packard Topcount scintillation counter. IC50 values were calculated using a non-linear curve fitting program and Ki values calculated using the Cheng-Prussoff equation.

T1 sequence (P29274 whole entry): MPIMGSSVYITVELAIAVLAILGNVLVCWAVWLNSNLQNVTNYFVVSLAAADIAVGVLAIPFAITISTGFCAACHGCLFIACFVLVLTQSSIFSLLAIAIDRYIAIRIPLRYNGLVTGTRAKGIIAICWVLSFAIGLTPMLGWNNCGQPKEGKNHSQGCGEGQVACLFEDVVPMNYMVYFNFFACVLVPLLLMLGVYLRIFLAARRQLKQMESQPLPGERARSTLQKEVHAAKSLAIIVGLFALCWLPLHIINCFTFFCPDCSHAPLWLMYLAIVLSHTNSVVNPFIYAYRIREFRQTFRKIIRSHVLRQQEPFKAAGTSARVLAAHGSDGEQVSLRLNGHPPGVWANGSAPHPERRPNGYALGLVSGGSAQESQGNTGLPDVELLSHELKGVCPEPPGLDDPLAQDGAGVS

`COc1ccc(N2CCOCC2)c2sc(NC(=O)OC3CCC(O)C3)nc12` (mixture of isomers) [Example 11, (cis/trans)-(4-Methoxy-7-morpholin-4-yl-benzothiazol-2-yl)-carbamic acid 3-hydroxy-cyclopentyl ester]: the melting point is 188 to 189 °C. Further, the Ki in series [1] is 15.8 nM.

`COc1ccc(N2CCOCC2)c2sc(NC(=O)OC3CC4CC3CC4O)nc12` (racemic) [Example 9, (rac)-(exo,exo)-(4-Methoxy-7-morpholin-4-yl-benzothiazol-2-yl)-carbamic acid 5-hydroxy-bicyclo[2.2.1]hept-2-yl ester]: the melting point was in the range of 193 to 194 °C. Also, in series [1], the Ki was 3.98 nM.

`COc1ccc(C2CCOCC2)c2sc(NC(=O)O[C@H]3CC[C@H](O)CC3)nc12` [Example 1, (trans)-[4-Methoxy-7-(tetrahydro-pyran-4-yl)-benzothiazol-2-yl]-carbamic acid 4-hydroxy-cyclohexyl ester] showed a melting point of 282 to 284 °C. For the same molecule, the Ki in series [1] was 2 nM.

Molecule `CCOC(=O)Nc1nc2c(OC)ccc(C3CCOCC3)c2s1` [Example 2, [4-Methoxy-7-(tetrahydro-pyran-4-yl)-benzothiazol-2-yl]-carbamic acid ethyl ester] showed a melting point of 170 to 174 °C. Moreover, the Ki in series [1] was 5.01 nM.

The molecule `COCCOC(=O)Nc1nc2c(OC)ccc(N3CCOCC3)c2s1` [Example 3, (4-Methoxy-7-morpholin-4-yl-benzothiazol-2-yl)-carbamic acid 2-methoxy-ethyl ester] had a melting point of 149 to 152 °C. The Ki in series [1] is 12.6 nM.

`COc1ccc(N2CCOCC2)c2sc(NC(=O)OCC(C)C)nc12` [Example 4, (4-Methoxy-7-morpholin-4-yl-benzothiazol-2-yl)-carbamic acid isobutyl ester] gave a melting point of 164 to 168 °C. Further, the Ki in series [1] was 25.1 nM.

Turning to `COc1ccc(N2CCOCC2)c2sc(NC(=O)OC3CCCCC3)nc12` [Example 5, (4-Methoxy-7-morpholin-4-yl-benzothiazol-2-yl)-carbamic acid cyclohexyl ester], the melting point is 177 to 179 °C. In series [1], the Ki was 7.94 nM.

`COc1ccc(N2CCOCC2)c2sc(NC(=O)O[C@H]3CC[C@H](O)CC3)nc12` [Example 6, (tran)s-(4-Methoxy-7-morpholin-4-yl-benzothiazol-2-yl)-carbamic acid 4-hydroxy-cyclohexyl ester] yielded a melting point of 176 to 179 °C. Further, in series [1], the Ki was 6.31 nM.

Molecule `COc1ccc(N2CCOCC2)c2sc(NC(=O)O[C@H]3CC[C@@H](O)CC3)nc12` [Example 7, (cis)-(4-Methoxy-7-morpholin-4-yl-benzothiazol-2-yl)-carbamic acid 4-hydroxy-cydohexyl ester] yielded a melting point of 204 to 206 °C. In addition, the Ki in series [1] was 10 nM.

As for `COc1ccc(N2CCOCC2)c2sc(NC(=O)OC3CCOCC3)nc12` [Example 8, (4-Methoxy-7-morpholin-4-yl-benzothiazol-2-yl)-carbamic acid tetrahydro-pyran-4-yl ester], the melting point lay in the range of 187 to 188 °C. Further, the Ki in series [1] is 7.94 nM.

Consider `COc1ccc(N2CCOCC2)c2sc(NC(=O)O[C@@H]3CCOC3)nc12` [Example 10, (R)-(4-Methoxy-7-morpholin-4-yl-benzothiazol-2-yl)-carbamic acid tetrahydro-furan-3-yl ester], for which the melting point was in the range of 198 to 200 °C. Besides, the Ki in series [1] was 25.1 nM.

`COc1ccc(C2CCOCC2)c2sc(NC(=O)OCC3CCCO3)nc12` (centres unmarked) [Example 12, [4-Methoxy-7-(tetrahydro-pyran-4-yl)-benzothiazol-2-yl]-carbamic acid tetrahydro-furan-2-ylmethyl ester]: the melting point lay in the range of 175 to 180 °C. Besides, the Ki in series [1] is 12.6 nM.

Consider `COc1ccc(C2CCOCC2)c2sc(NC(=O)O[C@H]3CCOC3)nc12` [Example 13, [4-Methoxy-7-(tetrahydro-pyran-4-yl)-benzothiazol-2-yl]-carbamic acid (S)-(tetrahydro-furan-3-yl) ester], for which the melting point fell in the range of 195 to 200 °C. In addition, the Ki in series [1] is 3.98 nM.

The record behind these values is patent US7304058B2, “Carbamic acid esters of benzothiazoles” (Hoffmann-La Roche Inc., priority 2003, dated 2007).
